Our source for the EC50, IC50 and Activity values is ChEMBL document CHEMBL1681641, “Discovery of substituted phenyl urea derivatives as novel long-acting β2-adrenoreceptor agonists” (Bioorg Med Chem Lett, 2011).

In brackets after ≈: the same amount, converted by molar mass.

In test [1] the target is Beta-1 adrenergic receptor (Rattus norvegicus, UniProt P18090). Nature of the test: Agonist activity at beta1 adrenoceptor in rat left atria assessed as induction of ionotropic effect. The test is classed as functional.
Test [2] deals with Cavia porcellus. Nature of the test: Bronchocoprotective activity in guinea pig assessed as inhibition of acetylcholine-induced bronchoconstriction administered by aerosol after 4 hrs. Format: functional, organism-based.
Test [3] in a line: Bronchodialatory activity in guinea pig trachea assessed as tone recovery measured after 1 hr of drug washout. Format: functional, Cavia porcellus. On the set-up: concentration or dose not given beside the values.
Test [4] concerns the target Beta-2 adrenergic receptor (Cavia porcellus, UniProt Q8K4Z4). Nature of the test: Agonist activity at beta2 adrenoceptor in guinea pig tracheal rings assessed as relaxation of tracheal smooth muscle. The test is classed as functional, tissue-based, Trachea.
For test [5], the system named is Cavia porcellus. Nature of the test: Bronchocoprotective activity in guinea pig assessed as inhibition of acetylcholine-induced bronchoconstriction administered by aerosol after 24 hrs. The test is classed as functional, organism-based.

Sequence of Beta-2 adrenergic receptor (Q8K4Z4 whole entry): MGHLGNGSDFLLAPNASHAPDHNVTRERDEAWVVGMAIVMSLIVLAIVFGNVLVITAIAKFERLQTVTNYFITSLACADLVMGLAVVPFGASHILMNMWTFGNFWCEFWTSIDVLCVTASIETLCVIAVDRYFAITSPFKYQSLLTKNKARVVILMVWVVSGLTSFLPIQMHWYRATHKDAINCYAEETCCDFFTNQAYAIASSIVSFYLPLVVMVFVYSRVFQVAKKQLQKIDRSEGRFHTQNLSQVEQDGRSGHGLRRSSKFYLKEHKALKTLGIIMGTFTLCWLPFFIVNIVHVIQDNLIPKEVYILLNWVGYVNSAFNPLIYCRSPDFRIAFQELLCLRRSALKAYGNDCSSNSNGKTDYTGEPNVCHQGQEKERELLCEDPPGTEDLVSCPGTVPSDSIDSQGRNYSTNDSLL
Sequence of Beta-1 adrenergic receptor (P18090 whole entry): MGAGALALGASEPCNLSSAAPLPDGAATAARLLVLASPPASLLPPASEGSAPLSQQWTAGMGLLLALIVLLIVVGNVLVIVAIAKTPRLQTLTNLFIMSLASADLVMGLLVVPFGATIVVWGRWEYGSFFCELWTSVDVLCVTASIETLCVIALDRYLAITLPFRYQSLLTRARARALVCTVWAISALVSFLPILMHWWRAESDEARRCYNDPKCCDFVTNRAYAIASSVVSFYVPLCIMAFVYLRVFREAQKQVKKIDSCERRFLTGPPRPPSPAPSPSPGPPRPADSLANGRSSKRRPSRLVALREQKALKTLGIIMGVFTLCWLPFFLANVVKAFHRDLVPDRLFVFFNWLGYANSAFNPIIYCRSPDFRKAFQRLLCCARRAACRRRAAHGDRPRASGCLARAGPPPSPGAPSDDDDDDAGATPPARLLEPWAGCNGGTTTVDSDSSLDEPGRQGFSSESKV

In the case of `O=C(NCCc1ccccc1)Nc1cccc(CCNCC(O)c2ccc(O)c3[nH]c(=O)ccc23)c1` (stereo unspecified), the EC50 (usually the concentration needed to bring the measured effect to its halfway point) is > 10000 nM in test [1] and 0.09 nM in test [4]. In addition, the results for the IC50 in test [2] and in test [5] were 2 µg/mL (≈ 4.11 µM) and > 10 µg/mL, respectively. In test [3], the Activity was found to be 9%.
Consider `O=C(NCc1ccc(F)cc1)Nc1cccc(CCNCC(O)c2ccc(O)c3[nH]c(=O)ccc23)c1` (stereo unspecified), for which the 50% effective concentration (EC50) in test [1] is 6300 nM; in test [4] it was 0.2 nM. In addition, the Activity in test [3] is 16%.
As for `O=C(NCc1c(Cl)cccc1Cl)Nc1cccc(CCNCC(O)c2ccc(O)c3[nH]c(=O)ccc23)c1` (stereo unspecified), the half-maximal effective concentration (EC50) in test [1] amounted to 1600 nM; in test [4], 0.2 nM. Moreover, the IC50 (as a rule, the concentration that inhibits the measured activity by half) in test [2] was 4 µg/mL (≈ 7.39 µM); in test [5], > 100 µg/mL. The Activity in test [3] came to 4%.
In the same order, the values of `O=C(Nc1ccccc1)Nc1cccc(CCNCC(O)c2ccc(O)c3[nH]c(=O)ccc23)c1` (stereo unspecified) are > 10000 nM, 0.07 nM, 0.2 µg/mL (≈ 0.436 µM), 3 µg/mL (≈ 6.54 µM) and 12%.
With `O=C(NCCCc1ccccc1)Nc1cccc(CCNCC(O)c2ccc(O)c3[nH]c(=O)ccc23)c1` (stereo unspecified), the half-maximal effective concentration (EC50) in test [1] was > 10000 nM; in test [4] it was 0.05 nM. Moreover, the concentration for half-maximal inhibition (IC50) in test [2] is 1 µg/mL (≈ 2 µM); in test [5] it was 3 µg/mL (≈ 5.99 µM). For the same compound, in test [3], the Activity worked out at 2%.
With `O=C(Nc1cccc(CCNCC(O)c2ccc(O)c3[nH]c(=O)ccc23)c1)Nc1ccccc1-c1ccccc1` (stereo unspecified), the 50% effective concentration (EC50) was 5770 nM in test [1] and 0.7 nM in test [4]. In addition, the results for the half-maximal inhibitory concentration (IC50) in test [2] and in test [5] were 3 µg/mL (≈ 5.61 µM) and 7 µg/mL (≈ 13.1 µM), respectively. Further, the Activity in test [3] was determined as 4%.
Turning to `O=C(Nc1cccc(CCNCC(O)c2ccc(O)c3[nH]c(=O)ccc23)c1)NC(c1ccccc1)c1ccccc1` (stereo unspecified), the concentration giving a half-maximal response (EC50) in test [1] is 8890 nM; in test [4] it was 0.2 nM. Further, the 50% inhibitory concentration (IC50) in test [2] was 1 µg/mL (≈ 1.82 µM); in test [5], 1.5 µg/mL (≈ 2.73 µM). The Activity in test [3] amounted to 2%.
As for `CC(C)(C)c1ccc(CNC(=O)Nc2cccc(CCNCC(O)c3ccc(O)c4[nH]c(=O)ccc34)c2)cc1` (stereo unspecified), the Activity in test [3] is listed as 5%. In addition, the EC50 in test [4] amounted to 0.9 nM.
Regarding `O=C(NCc1ccccc1)Nc1cccc(CCNCC(O)c2ccc(O)c3[nH]c(=O)ccc23)c1` (stereo unspecified), the half-maximal effective concentration (EC50) is 900 nM in test [1] and 0.2 nM in test [4]. For the same compound, the values for the IC50 in test [2] and in test [5] were 0.3 µg/mL (≈ 0.635 µM) and > 100 µg/mL, respectively. Moreover, the Activity in test [3] turned out to be 15%.
With `O=C(Nc1cccc(CCNCC(O)c2ccc(O)c3[nH]c(=O)ccc23)c1)Nc1cccc(Oc2ccccc2)c1` (stereo unspecified), the EC50 stood at 10000 nM in test [1] and 1 nM in test [4]. Moreover, the Activity in test [3] is on record as 0%.
In the case of `NC(=O)c1cccc(CNC(=O)Nc2cccc(CCNCC(O)c3ccc(O)c4[nH]c(=O)ccc34)c2)c1` (stereo unspecified), the Activity in test [3] was found to be 52%. Also, the EC50 in test [4] is 0.13 nM.
On to `O=C(NCC12CC3CC(CC(C3)C1)C2)Nc1cccc(CCNCC(O)c2ccc(O)c3[nH]c(=O)ccc23)c1` (stereo unspecified), for which the EC50 was 296 nM in test [1] and 3.2 nM in test [4]. Besides, the Activity in test [3] was determined as 8%.
With `NC(=O)C(c1ccccc1)(c1ccccc1)[C@@H]1CCN(CCc2ccc3c(c2)CCO3)C1` [DARIFENACIN], the EC50 was 2310 nM in test [1] and 1 nM in test [4]. Moreover, the IC50 in test [2] came to 5 µg/mL (≈ 11.7 µM); in test [5], 12 µg/mL (≈ 28.1 µM). The Activity in test [3] is given as 0%.
Turning to `COc1ccccc1CNC(=O)Nc1cccc(CCNCC(O)c2ccc(O)c3[nH]c(=O)ccc23)c1` (stereo unspecified), the results for the half-maximal effective concentration (EC50) in test [1] and in test [4] were 550 nM and 0.2 nM, respectively. For the same compound, in test [3], the Activity amounted to 23%.
